The values below come from paper PMC7865522, “Analyzing Kinase Similarity in Small Molecule and Protein Structural Space to Explore the Limits of Multi-Target Screening” (Molecules, 2021).

Each structure is given as a SMILES string.

For experiment [1], the target named is T1, BRAF (Homo sapiens, UniProt P15056).
T1 construct: purchased DiscoverX (KINOMEscan service); host or cells: E. coli BL21-derived host (T7 phage) or HEK-293
In words: DiscoverX KINOMEscan competition binding assay. The settings on record: compound 10 µM; lower values = higher affinity; below 35% = significant binding. On the procedure: (§1) Ligand binding experiments for the molecules selected from Profiles 1 and 2 towards nine kinases (EGFR, ErbB2, LCK, CDK2, BRAF, MET, p38α, PI3K and VEGFR2) and for molecules selected from Profiles 3 and 4 towards four kinases (EGFR, ErbB2, BRAF and VEGFR2) were carried out by DiscoverX using the supplied protocol as described in the Supplementary Materials. Briefly, ligand affinity was measured by competition with a resin-bound standard ligand and washed-off kinase concentration was determined via qPCR.
(§2) Summarizing, binding of a compound to a kinase was tested in comparison to a control compound (see Table S2). […]
(§3) 1.1. DiscoverX kinase assay
(§4) For most assays, kinase-tagged T7 phage strains were grown in parallel in 24-well blocks in an E.coli host derived from the BL21 strain. E.coli were grown to log-phase and infected with T7 phage from a frozen stock (multiplicity of infection = 0.4) and incubated with shaking at 32°C until lysis (90-150 minutes). The lysates were centrifuged (6,000 x g) and ﬁltered (0.2µm) to remove cell debris.
(§5) The remaining kinases were produced in HEK-293 cells and subsequently tagged with DNA for qPCR detection. Streptavidin-coated magnetic beads were treated with biotinylated small molecule ligands for 30 minutes at room temperature to generate afﬁnity resins for the kinases. The liganded beads were blocked with excess biotin and washed with blocking buffer (SeaBlock [Pierce], 1% BSA, 0.05% Tween 20, 1 mM DTT) to remove unbound ligands and to reduce non-speciﬁc phage binding. Binding reactions were assembled by combining kinases, liganded afﬁnity beads, and test compounds in 1x binding buffer (20% SeaBlock, 0.17x PBS, 0.05% Tween 20, 6 mM DTT). Test compounds were prepared as 40x stocks in 100% DMSO and directly diluted into the assay. All reactions were performed in polypropylene 384-well plates in a ﬁnal volume of 0.02 ml. The assay plates were incubated at room temperature with shaking for 1 hour and the afﬁnity beads were washed with wash buffer (1x PBS, 0.05% Tween 20). The beads were then re-suspended in elution buffer (1x PBS, 0.05% Tween 20, 0.5 µM non-biotinylated afﬁnity ligand) and incubated at room temperature with shaking for 30 minutes. The kinase concentration in the eluates was measured by qPCR. […]
(§6) Table S2. Experimental % control values from the DiscoverX kinase assay. Compounds were tested against the nine kinases EGFR, ErbB2, LCK, CDK2, BRAF, MET, p38α, PI3K and VEGFR2, unless otherwise stated. Binding of kinase and compound were tested at a compound concentration of 10 µM and in comparison to a control compound. Lower values indicate a higher afﬁnity of the compound to the protein and values below 35% indicate signiﬁcant binding according to information of the CRO. […]
(§7) a Compounds were only tested against four kinases (EGFR, ErbB2, BRAF and VEGFR2). b Compound was selected independently from two docking proﬁles and tested separately during

Another experiment has as its target T2, CDK2 (Homo sapiens, UniProt P24941).
T2 construct: purchased DiscoverX (KINOMEscan service); host or cells: E. coli BL21-derived host (T7 phage) or HEK-293
Briefly: DiscoverX KINOMEscan competition binding assay. The settings on record: compound 10 µM; lower values = higher affinity; below 35% = significant binding. The procedure:
as §1, §2, §3, §4, §5, §6, §7

The target in experiment [2] is T3, EGFR (Homo sapiens, UniProt P00533).
T3 construct: purchased DiscoverX (KINOMEscan service); host or cells: E. coli BL21-derived host (T7 phage) or HEK-293
T3 sequence (P00533 25-1210): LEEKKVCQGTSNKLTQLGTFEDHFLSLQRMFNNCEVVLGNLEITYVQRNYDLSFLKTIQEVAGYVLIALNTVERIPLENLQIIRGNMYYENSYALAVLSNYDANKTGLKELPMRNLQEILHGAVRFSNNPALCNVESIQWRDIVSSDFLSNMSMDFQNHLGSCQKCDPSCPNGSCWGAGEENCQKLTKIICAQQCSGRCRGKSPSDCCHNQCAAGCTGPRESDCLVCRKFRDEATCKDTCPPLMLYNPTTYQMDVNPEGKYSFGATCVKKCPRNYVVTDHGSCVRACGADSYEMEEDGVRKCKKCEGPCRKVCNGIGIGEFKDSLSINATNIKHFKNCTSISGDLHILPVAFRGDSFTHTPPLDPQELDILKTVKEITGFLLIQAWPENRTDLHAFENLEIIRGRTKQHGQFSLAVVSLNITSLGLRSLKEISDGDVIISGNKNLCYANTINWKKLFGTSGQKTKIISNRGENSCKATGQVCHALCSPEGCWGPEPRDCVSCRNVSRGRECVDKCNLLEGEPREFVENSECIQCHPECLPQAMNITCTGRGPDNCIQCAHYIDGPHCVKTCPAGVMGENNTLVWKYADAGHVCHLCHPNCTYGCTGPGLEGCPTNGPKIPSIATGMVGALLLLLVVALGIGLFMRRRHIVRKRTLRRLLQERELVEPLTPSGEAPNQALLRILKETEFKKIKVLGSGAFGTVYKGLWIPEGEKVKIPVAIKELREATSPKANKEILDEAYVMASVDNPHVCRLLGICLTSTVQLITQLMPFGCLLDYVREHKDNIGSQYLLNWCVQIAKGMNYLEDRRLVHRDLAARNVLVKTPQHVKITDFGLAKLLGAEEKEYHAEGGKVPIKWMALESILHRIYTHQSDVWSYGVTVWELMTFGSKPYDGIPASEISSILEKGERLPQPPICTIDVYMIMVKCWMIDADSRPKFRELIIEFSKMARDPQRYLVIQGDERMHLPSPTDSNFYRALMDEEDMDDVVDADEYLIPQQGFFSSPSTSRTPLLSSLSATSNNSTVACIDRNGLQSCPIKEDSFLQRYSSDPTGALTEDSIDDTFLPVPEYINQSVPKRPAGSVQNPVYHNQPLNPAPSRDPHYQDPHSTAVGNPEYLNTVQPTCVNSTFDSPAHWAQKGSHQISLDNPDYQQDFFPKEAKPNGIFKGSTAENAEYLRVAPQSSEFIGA
Briefly: DiscoverX KINOMEscan competition binding assay. The settings on record: compound 10 µM; lower values = higher affinity; below 35% = significant binding. On the procedure:
as §1, §2, §3, §4, §5, §6, §7

Experiment [3] addresses T4, ErbB2 (Homo sapiens, UniProt P04626).
T4 construct: purchased DiscoverX (KINOMEscan service); host or cells: E. coli BL21-derived host (T7 phage) or HEK-293
In words: DiscoverX KINOMEscan competition binding assay. The settings on record: compound 10 µM; lower values = higher affinity; below 35% = significant binding. The procedure: as §1, §2, §3, §4, §5, §6, §7

In the next experiment the target is T5, LCK (Homo sapiens, UniProt P06239).
T5 construct: purchased DiscoverX (KINOMEscan service); host or cells: E. coli BL21-derived host (T7 phage) or HEK-293
T5 sequence (P06239 whole entry): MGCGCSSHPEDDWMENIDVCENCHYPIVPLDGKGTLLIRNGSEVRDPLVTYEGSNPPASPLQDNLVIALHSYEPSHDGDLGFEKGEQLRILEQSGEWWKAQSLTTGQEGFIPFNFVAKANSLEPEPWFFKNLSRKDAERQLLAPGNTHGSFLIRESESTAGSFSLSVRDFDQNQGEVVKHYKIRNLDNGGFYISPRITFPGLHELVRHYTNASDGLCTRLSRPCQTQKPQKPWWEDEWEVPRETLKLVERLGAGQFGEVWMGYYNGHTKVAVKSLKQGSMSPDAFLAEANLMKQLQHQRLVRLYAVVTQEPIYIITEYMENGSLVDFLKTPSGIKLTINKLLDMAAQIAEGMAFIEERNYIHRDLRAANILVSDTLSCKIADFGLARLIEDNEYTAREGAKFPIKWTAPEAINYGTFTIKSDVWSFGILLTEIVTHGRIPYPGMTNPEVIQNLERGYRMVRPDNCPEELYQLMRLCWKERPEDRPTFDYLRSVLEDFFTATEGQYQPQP
In words: DiscoverX KINOMEscan competition binding assay. The settings on record: compound 10 µM; lower values = higher affinity; below 35% = significant binding. On the procedure:
as §1, §2, §3, §4, §5, §6, §7

Another experiment deals with T6, MET (Homo sapiens, UniProt P08581).
T6 construct: purchased DiscoverX (KINOMEscan service); host or cells: E. coli BL21-derived host (T7 phage) or HEK-293
T6 sequence (P08581 25-1390): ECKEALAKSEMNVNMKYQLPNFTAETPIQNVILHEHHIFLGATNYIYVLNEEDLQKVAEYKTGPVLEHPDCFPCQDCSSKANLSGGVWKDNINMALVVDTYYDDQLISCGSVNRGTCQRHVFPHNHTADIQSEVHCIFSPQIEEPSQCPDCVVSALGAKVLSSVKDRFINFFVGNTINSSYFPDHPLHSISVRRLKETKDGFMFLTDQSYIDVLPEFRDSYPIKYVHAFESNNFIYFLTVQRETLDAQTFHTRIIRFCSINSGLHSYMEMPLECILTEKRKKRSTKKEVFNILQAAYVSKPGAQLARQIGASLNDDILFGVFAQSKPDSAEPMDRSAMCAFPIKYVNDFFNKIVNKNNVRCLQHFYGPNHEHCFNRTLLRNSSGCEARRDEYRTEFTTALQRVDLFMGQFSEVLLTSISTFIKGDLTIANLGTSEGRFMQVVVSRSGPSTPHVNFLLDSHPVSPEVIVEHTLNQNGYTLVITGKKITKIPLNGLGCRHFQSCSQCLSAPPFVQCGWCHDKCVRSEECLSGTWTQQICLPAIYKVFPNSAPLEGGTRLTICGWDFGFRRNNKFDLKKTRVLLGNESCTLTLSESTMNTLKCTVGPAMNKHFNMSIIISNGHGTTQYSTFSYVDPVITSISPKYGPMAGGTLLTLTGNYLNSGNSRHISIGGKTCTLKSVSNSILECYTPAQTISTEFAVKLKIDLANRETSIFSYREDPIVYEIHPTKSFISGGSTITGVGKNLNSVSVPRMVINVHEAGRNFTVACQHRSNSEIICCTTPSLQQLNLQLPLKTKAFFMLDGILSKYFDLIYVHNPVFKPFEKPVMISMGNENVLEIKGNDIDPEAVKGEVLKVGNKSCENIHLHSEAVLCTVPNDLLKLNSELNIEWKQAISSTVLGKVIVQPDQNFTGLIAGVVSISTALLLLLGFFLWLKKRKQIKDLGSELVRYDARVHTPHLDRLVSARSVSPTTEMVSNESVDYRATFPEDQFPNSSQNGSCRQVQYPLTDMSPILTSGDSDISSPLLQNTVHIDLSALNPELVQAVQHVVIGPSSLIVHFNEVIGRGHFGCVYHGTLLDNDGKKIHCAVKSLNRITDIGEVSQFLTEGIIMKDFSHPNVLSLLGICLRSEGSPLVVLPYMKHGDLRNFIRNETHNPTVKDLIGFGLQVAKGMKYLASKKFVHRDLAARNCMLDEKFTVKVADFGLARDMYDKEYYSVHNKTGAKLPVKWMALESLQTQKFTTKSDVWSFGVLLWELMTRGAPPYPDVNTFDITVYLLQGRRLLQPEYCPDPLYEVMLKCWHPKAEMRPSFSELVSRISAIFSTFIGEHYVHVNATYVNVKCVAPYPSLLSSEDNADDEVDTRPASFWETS
In words: DiscoverX KINOMEscan competition binding assay. The settings on record: compound 10 µM; lower values = higher affinity; below 35% = significant binding. The procedure: as §1, §2, §3, §4, §5, §6, §7

A further experiment addresses T7, VEGFR2 (Homo sapiens, UniProt P35968).
T7 construct: purchased DiscoverX (KINOMEscan service); host or cells: E. coli BL21-derived host (T7 phage) or HEK-293
In words: DiscoverX KINOMEscan competition binding assay. The settings on record: compound 10 µM; lower values = higher affinity; below 35% = significant binding. The procedure: as §1, §2, §3, §4, §5, §6, §7

The next experiment has as its target T8, p38α (Homo sapiens, UniProt Q16539).
T8 construct: purchased DiscoverX (KINOMEscan service); host or cells: E. coli BL21-derived host (T7 phage) or HEK-293
In words: DiscoverX KINOMEscan competition binding assay. The settings on record: compound 10 µM; lower values = higher affinity; below 35% = significant binding. On the procedure: as §1, §2, §3, §4, §5, §6, §7

Experiment [4] concerns the target T1, BRAF. Briefly: Eurofins in vitro kinase inhibition assay. The class given is biochemical. The settings on record: compound 20 µM; mean (SD); above 50% significant, 25-50% weak. On the procedure:
(§8) Kinase inhibition assays for EGFR, ErbB2, PI3K and BRAF were carried out by Eurofins Cerep following the protocols of Weber et al. (EGFR), Quian et al. (ErbB2), Sinnamon et al. (PI3K) and Kupcho et al. (BRAF). Briefly, except for PI3K, compounds were incubated with the respective kinase, ATP, and a substrate analog, and the effect of each compound on phosphorylation was measured. In the case of PI3K, the displacement of biotinylated PIP3 from a PIP3-binding complex by unlabelled PIP3 (produced from PIP2 by PI3K) was measured by Homogeneous Time Resolved Fluorescence (HTRF).
(§9) Finally, inhibition of the respective kinases is calculated as the percentage inhibition of control activity.
(§10) Table S3. Experimental results from the Euroﬁns assay. Inhibition of four kinases (EGFR, PI3K, ErbB2, BRAF) was measured at compound concentrations of 20 µM. Inhibition was calculated as % inhibition of control activity. According to CRO, values above 50% inhibition represent signiﬁcant inhibition, values above 25% weak inhibition effect and values below 25% as well as negative values are usually not signiﬁcant. Results are reported in mean (SD) format. […]
(§11) a Compound interfered with assay readout.

For experiment [5], the target named is T3, EGFR. In words: Eurofins in vitro kinase inhibition assay. The class given is biochemical. The settings on record: compound 20 µM; mean (SD); above 50% significant, 25-50% weak. On the procedure: as §8, §9, §10, §11
Experiment [6] concerns the target T4, ErbB2. Briefly: Eurofins in vitro kinase inhibition assay. The settings on record: compound 20 µM; mean (SD); above 50% significant, 25-50% weak. It counts as biochemical. On the procedure: as §8, §9, §10, §11
Experiment [7] has as its target T9, PI3K (Homo sapiens, UniProt P42336). Briefly: Eurofins in vitro kinase inhibition assay (HTRF, PIP3 displacement). Further details: purchased Eurofins Cerep (contract assay). The class given is biochemical. The settings on record: compound 20 µM; mean (SD); above 50% significant, 25-50% weak. The procedure: as §8, §9, §10, §11
Experiment [8] deals with T9, PI3K. Briefly: DiscoverX KINOMEscan competition binding assay. Further details: purchased DiscoverX (KINOMEscan service); host or cells: E. coli BL21-derived host (T7 phage) or HEK-293. The settings on record: compound 10 µM; lower values = higher affinity; below 35% = significant binding. The procedure: as §1, §2, §3, §4, §5, §6, §7
Target sequence in this assay (P42336 whole entry): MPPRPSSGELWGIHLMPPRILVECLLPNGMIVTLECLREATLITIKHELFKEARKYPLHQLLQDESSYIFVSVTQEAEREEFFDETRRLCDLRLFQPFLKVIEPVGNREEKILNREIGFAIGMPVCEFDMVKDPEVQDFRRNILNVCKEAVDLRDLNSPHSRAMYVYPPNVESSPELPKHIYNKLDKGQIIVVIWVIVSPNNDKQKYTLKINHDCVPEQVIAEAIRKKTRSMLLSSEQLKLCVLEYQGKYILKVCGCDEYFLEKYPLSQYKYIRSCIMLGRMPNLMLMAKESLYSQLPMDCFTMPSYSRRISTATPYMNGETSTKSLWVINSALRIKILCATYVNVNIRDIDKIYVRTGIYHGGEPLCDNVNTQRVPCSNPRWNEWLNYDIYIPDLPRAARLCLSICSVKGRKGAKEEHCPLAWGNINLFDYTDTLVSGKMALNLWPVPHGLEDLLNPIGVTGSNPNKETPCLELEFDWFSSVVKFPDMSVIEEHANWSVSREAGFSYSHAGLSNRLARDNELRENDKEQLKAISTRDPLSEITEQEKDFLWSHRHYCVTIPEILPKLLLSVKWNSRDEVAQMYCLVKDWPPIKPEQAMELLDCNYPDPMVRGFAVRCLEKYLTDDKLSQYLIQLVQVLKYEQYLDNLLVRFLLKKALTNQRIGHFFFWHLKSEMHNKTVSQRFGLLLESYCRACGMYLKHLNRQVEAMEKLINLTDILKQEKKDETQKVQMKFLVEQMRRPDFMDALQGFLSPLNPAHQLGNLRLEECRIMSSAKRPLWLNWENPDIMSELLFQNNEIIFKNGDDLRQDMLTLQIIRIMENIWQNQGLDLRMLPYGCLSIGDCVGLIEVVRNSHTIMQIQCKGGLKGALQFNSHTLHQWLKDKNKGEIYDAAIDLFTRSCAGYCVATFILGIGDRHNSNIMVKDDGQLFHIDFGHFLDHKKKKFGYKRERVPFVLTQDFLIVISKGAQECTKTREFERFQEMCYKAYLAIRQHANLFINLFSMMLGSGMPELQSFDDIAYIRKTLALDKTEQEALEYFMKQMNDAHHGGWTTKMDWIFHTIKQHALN

T1 sequence (P15056 whole entry): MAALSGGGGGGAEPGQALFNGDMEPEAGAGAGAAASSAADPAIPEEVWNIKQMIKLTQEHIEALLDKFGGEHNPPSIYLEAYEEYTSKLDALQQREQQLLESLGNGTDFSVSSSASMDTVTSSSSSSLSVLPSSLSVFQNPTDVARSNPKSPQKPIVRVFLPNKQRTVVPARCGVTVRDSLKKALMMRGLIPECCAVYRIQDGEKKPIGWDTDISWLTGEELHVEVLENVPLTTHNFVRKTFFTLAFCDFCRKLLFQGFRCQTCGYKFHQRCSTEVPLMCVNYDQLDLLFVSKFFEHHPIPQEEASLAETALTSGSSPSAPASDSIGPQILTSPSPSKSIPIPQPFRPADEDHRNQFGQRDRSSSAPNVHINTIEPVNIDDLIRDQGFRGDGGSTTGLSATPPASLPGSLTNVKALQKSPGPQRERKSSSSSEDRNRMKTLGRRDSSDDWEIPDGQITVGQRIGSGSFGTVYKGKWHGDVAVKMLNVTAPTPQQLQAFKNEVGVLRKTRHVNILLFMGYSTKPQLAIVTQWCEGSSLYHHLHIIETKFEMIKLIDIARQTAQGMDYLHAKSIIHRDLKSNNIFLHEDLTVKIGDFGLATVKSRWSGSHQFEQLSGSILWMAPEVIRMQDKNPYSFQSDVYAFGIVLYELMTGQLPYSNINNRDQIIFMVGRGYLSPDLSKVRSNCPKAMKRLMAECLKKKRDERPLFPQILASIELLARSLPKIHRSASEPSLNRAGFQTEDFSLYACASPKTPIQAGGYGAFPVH

For the compound `COCCCNC(=O)c1nc2c3c4c(sc3ncn2n1)CCC[C@H]4C` [DS66846], the “% control, BRAF (DiscoverX)” value on BRAF [1] is listed as 100 % control. The “% control, CDK2 (DiscoverX)” value on CDK2 was 100 % control. Further, at EGFR [2], the “% control, EGFR (DiscoverX)” value was determined as 100 % control. For the same compound, the “% control, ErbB2 (DiscoverX)” value at ErbB2 [3] came to 96 % control. In addition, on LCK, the “% control, LCK (DiscoverX)” value is reported as 100 % control. Besides, the “% control, MET (DiscoverX)” value on MET is reported as 92 % control. Moreover, the “% control, VEGFR2 (DiscoverX)” value on VEGFR2 is 100 % control. Further, the “% control, p38α (DiscoverX)” value at p38α came to 100 % control. In addition, on BRAF [4], the “% inhibition of control activity, BRAF (Eurofins)” value (shortened to “% inhibition … BRAF (Eurofins)”) is on record as -18.7 (11.9) % inhibition. Also, the “% inhibition of control activity, EGFR (Eurofins)” value (from here on “% inhibition … EGFR (Eurofins)”) at EGFR [5] is reported as 14.5 (8.6) % inhibition. For the same compound, on ErbB2 [6], the “% inhibition of control activity, ErbB2 (Eurofins)” value (“% inhibition … ErbB2 (Eurofins)” for short) is listed as -2.5 (1.6) % inhibition. In addition, at PI3K [7], the “% inhibition of control activity, PI3K (Eurofins)” value (from here on “% inhibition … PI3K (Eurofins)”) was 4.6 (7.7) % inhibition. In addition, the “% control, PI3K (DiscoverX)” value at PI3K [8] was 100 % control.
As for `Cc1ccc(/C=C2\N=C(c3cccc(S(=O)(=O)N(C)C)c3)OC2=O)s1` [DS74871], at BRAF [1], the “% control, BRAF (DiscoverX)” value was 100 % control. Further, the “% control, CDK2 (DiscoverX)” value at CDK2 was 100 % control. On EGFR [2], the “% control, EGFR (DiscoverX)” value came to 100 % control. For the same compound, the “% control, ErbB2 (DiscoverX)” value on ErbB2 [3] was 100 % control. Further, the “% control, LCK (DiscoverX)” value at LCK was found to be 90 % control. On MET, the “% control, MET (DiscoverX)” value is 95 % control. Also, the “% control, VEGFR2 (DiscoverX)” value at VEGFR2 is reported as 100 % control. In addition, the “% control, p38α (DiscoverX)” value on p38α came out at 81 % control. Moreover, the “% inhibition … BRAF (Eurofins)” value at BRAF [4] was -44.9 (24.1) % inhibition. The “% inhibition … EGFR (Eurofins)” value at EGFR [5] was 23.3 (4.2) % inhibition. In addition, on ErbB2 [6], the “% inhibition … ErbB2 (Eurofins)” value was -8.3 (1.2) % inhibition. Besides, at PI3K [7], the “% inhibition … PI3K (Eurofins)” value is 22.1 (2.3) % inhibition. Further, on PI3K [8], the “% control, PI3K (DiscoverX)” value stood at 100 % control.
Regarding `O=C1C[C@@H](c2noc(-c3ccc[nH]c3=O)n2)CN1Cc1ccccc1` [DS52225], the “% control, BRAF (DiscoverX)” value at BRAF [1] is given as 100 % control. On CDK2, the “% control, CDK2 (DiscoverX)” value stood at 100 % control. Also, on EGFR [2], the “% control, EGFR (DiscoverX)” value is 100 % control. For the same compound, the “% control, ErbB2 (DiscoverX)” value on ErbB2 [3] worked out at 94 % control. Also, at LCK, the “% control, LCK (DiscoverX)” value turned out to be 100 % control. The “% control, MET (DiscoverX)” value at MET is 91 % control. Further, on VEGFR2, the “% control, VEGFR2 (DiscoverX)” value turned out to be 98 % control. Besides, the “% control, p38α (DiscoverX)” value on p38α was 100 % control. The “% inhibition … BRAF (Eurofins)” value on BRAF [4] is given as -17.7 (15.6) % inhibition. On EGFR [5], the “% inhibition … EGFR (Eurofins)” value is 22.7 (15.5) % inhibition. At ErbB2 [6], the “% inhibition … ErbB2 (Eurofins)” value is 4.5 (4.9) % inhibition. Moreover, the “% inhibition … PI3K (Eurofins)” value at PI3K [7] is 0.9 (3.6) % inhibition. The “% control, PI3K (DiscoverX)” value on PI3K [8] worked out at 100 % control.
